ChEMBL document CHEMBL1681728, “An automated, polymer-assisted strategy for the preparation of urea and thiourea derivatives of 15-membered azalides as potential antimalarial chemotherapeutics” (Bioorg Med Chem, 2011)

Experiments:
Format in all cases: functional, organism-based
[1] = tested on: Plasmodium falciparum; experiment: Antimalarial activity against chloroquine-,pyrimethamine-resistant Plasmodium falciparum W2 assessed as inhibition of [3H]hypoxanthine incorporation after 96 hrs by microtiter plate scintillation counting
[2] = tested on: Plasmodium falciparum; experiment: Antimalarial activity against multidrug-resistant Plasmodium falciparum TM91C235 assessed as inhibition of [3H]hypoxanthine incorporation after 96 hrs by microtiter plate scintillation counting
[3] = tested on: Plasmodium falciparum; experiment: Antimalarial activity against chloroquine-sensitive Plasmodium falciparum D6 assessed as inhibition of [3H]hypoxanthine incorporation after 96 hrs by microtiter plate scintillation counting

| Structure (SMILES) | IC50 [1] [nM] | IC50 [2] [nM] | IC50 [3] [nM] |
| --- | --- | --- | --- |
| CC[C@H]1OC(=O)[C@H](C)[C@@H](O[C@H]2C[C@@](C)(OC)[C@@H](O)[C@H](C)O2)[C@H](C)[C@@H](O[C@@H]2O[C@H](C)C[C@H](N(C)C)[C@H]2O)[C@](C)(O)C[C@@H](C)CN(CCCNC(=O)Nc2ccc(CC#N)cc2)[C@H](C)[C@@H](O)[C@]1(C)O | 149 | 571 | 1790 |
| CC[C@H]1OC(=O)[C@H](C)[C@@H](O[C@H]2C[C@@](C)(OC)[C@@H](O)[C@H](C)O2)[C@H](C)[C@@H](O[C@@H]2O[C@H](C)C[C@H](N(C)C)[C@H]2O)[C@](C)(O)C[C@@H](C)CN(CCCNC(=S)Nc2ccc(N3CCOCC3)nc2)[C@H](C)[C@@H](O)[C@]1(C)O | 1960 | 1570 | 2840 |
| CC[C@H]1OC(=O)[C@H](C)[C@@H](O[C@H]2C[C@@](C)(OC)[C@@H](O)[C@H](C)O2)[C@H](C)[C@@H](O[C@@H]2O[C@H](C)C[C@H](N(C)C)[C@H]2O)[C@](C)(O)C[C@@H](C)CN(CCCNC(=O)NCc2ccco2)[C@H](C)[C@@H](O)[C@]1(C)O | 287 | 496 | 5610 |
| CC[C@H]1OC(=O)[C@H](C)[C@@H](O[C@H]2C[C@@](C)(OC)[C@@H](O)[C@H](C)O2)[C@H](C)[C@@H](O[C@@H]2O[C@H](C)C[C@H](N(C)C)[C@H]2O)[C@](C)(O)C[C@@H](C)CN(CCCNC(=S)NCCCl)[C@H](C)[C@@H](O)[C@]1(C)O | 12800 | 12800 | 12800 |
| CC[C@H]1OC(=O)[C@H](C)[C@@H](O[C@H]2C[C@@](C)(OC)[C@@H](O)[C@H](C)O2)[C@H](C)[C@@H](O[C@@H]2O[C@H](C)C[C@H](N(C)C)[C@H]2O)[C@](C)(O)C[C@@H](C)CN(CCCNC(=O)NC2CCCC2)[C@H](C)[C@@H](O)[C@]1(C)O | 277 | 616 | 6020 |
| CC[C@H]1OC(=O)[C@H](C)[C@@H](O[C@H]2C[C@@](C)(OC)[C@@H](O)[C@H](C)O2)[C@H](C)[C@@H](O[C@@H]2O[C@H](C)C[C@H](N(C)C)[C@H]2O)[C@](C)(O)C[C@@H](C)CN(CCCNC(=S)Nc2cccc(F)c2)[C@H](C)[C@@H](O)[C@]1(C)O | 200 | 116 | 511 |
| CC[C@H]1OC(=O)[C@H](C)[C@@H](O[C@H]2C[C@@](C)(OC)[C@@H](O)[C@H](C)O2)[C@H](C)[C@@H](O[C@@H]2O[C@H](C)C[C@H](N(C)C)[C@H]2O)[C@](C)(O)C[C@@H](C)CN(CCCNC(=S)NCCCSC)[C@H](C)[C@@H](O)[C@]1(C)O | 202 | 354 | 898 |
| CC[C@H]1OC(=O)[C@H](C)[C@@H](O[C@H]2C[C@@](C)(OC)[C@@H](O)[C@H](C)O2)[C@H](C)[C@@H](O[C@@H]2O[C@H](C)C[C@H](N(C)C)[C@H]2O)[C@](C)(O)C[C@@H](C)CN(CCCNC(=S)NCc2ccco2)[C@H](C)[C@@H](O)[C@]1(C)O | 449 | 240 | 329 |
| CC[C@H]1OC(=O)[C@H](C)[C@@H](O[C@H]2C[C@@](C)(OC)[C@@H](O)[C@H](C)O2)[C@H](C)[C@@H](O[C@@H]2O[C@H](C)C[C@H](N(C)C)[C@H]2O)[C@](C)(O)C[C@@H](C)CN(CCCNC(=S)NCCN2CCCCC2)[C@H](C)[C@@H](O)[C@]1(C)O | 3300 | 3030 | 9290 |
| C=CCNC(=S)NCCCN1C[C@H](C)C[C@@](C)(O)[C@H](O[C@@H]2O[C@H](C)C[C@H](N(C)C)[C@H]2O)[C@@H](C)[C@H](O[C@H]2C[C@@](C)(OC)[C@@H](O)[C@H](C)O2)[C@@H](C)C(=O)O[C@H](CC)[C@@](C)(O)[C@H](O)[C@H]1C | 276 | 514 | 1140 |
| CC[C@H]1OC(=O)[C@H](C)[C@@H](O[C@H]2C[C@@](C)(OC)[C@@H](O)[C@H](C)O2)[C@H](C)[C@@H](O[C@@H]2O[C@H](C)C[C@H](N(C)C)[C@H]2O)[C@](C)(O)C[C@@H](C)CN(CCCNC(=S)Nc2ccc(N(C)C)c3ccccc23)[C@H](C)[C@@H](O)[C@]1(C)O | 175 | 180 | 326 |
